# Measurements from paper PMC7459541, “Frog Skin-Derived Peptides Against Corynebacterium jeikeium: Correlation between Antibacterial and Cytotoxic Activities” (Antibiotics, 2020).
# Where no end group is shown, it is not given here.
# What was measured:
# [1] = system: murine RAW 264.7 macrophages; settings: 64 µM; cited from earlier work
# [2] = system: C. jeikeium ATCC BAA-949; format: cell-based, Corynebacterium jeikeium; settings: lowest peptide concentration visually inhibiting growth after 20 h at 37 °C; TSB + 0.1% Tween 80; 2-fold serial dilutions; inoculum 2x10^6 CFU/mL diluted 1:1
# Procedure: The MIC of the different AMPs against C. jeikeium ATCC BAA-949 were determined following the previously described procedure with some modifications. The bacterium was grown in TSB^+ up to an optical density (O.D.) of 0.8 (λ = 590 nm) and diluted to reach a concentration of 2× 10^6 colony forming units (CFU) per mL. Aliquots (50 µL) of this dilution were added to 50 µL of TSB^+ supplemented with 2-fold serial dilution of peptides previously dispensed in the wells of a 96 well plate. Controls were bacteria not treated with the peptides. […] MBC was defined as the lowest peptide concentration able to cause a ≥3 log reduction in the number of cells of the initial inoculum after 20 h of incubation.
Substance,cell viability [1],MIC [2] [µM]
"GIFSKLAGKKIKNLLISGLKG-NH2 [Esc(1-21), esculentin-1a(1-21)]",about 50%,
"IIGPVLGLVGSALGGLLKKI-NH2 [Bombinin H2, bombinin H2]",,8
